Assay results taken from patent publication US4175125A, “Method for treating methicillin resistant staphylococcus aureus” (Eli Lilly and Company, priority 1978, dated 1979).
In brackets after ≈: the same amount, converted by molar mass. Where a name gives a salt, the structure may show the parent alone. Read-outs that look alike come from different tables or passages of the source.

Key:
[1] = system: methicillin-resistant Staphylococcus aureus; experiment: Gradient plate test (MIC) against methicillin-resistant Staphylococcus aureus; type: cell-based; details: Staphylococcus aureus, read-out: minimum inhibitory concentration (MIC)
Experimental: The method used is essentially that described by Bryson and Szybalski in 1952 (Science 116:45-46). The inoculum treatment method used for penicillin resistant Staphylococci was reported by Godzeski et al in Antimicrobial Agents and Chemotherapy, May, 1969, pp. 547-554.
A standard Falcon square plastic petri dish is used. A layer of agar (10 ml.) is poured into one of the square dishes, the dish tipped 5 mm. off the horizontal, and the agar layer allowed to harden in this position. This bottom layer of agar contains the antibiotic, the serum, and/or other material to be tested. The medium is Difco Penassay Agar containing 2 percent agar. We routinely used 4 ml. of human or horse serum for "serum-inactivation" testing. […] Therefore, serum is routinely added only to the bottom layer.
After the bottom, slanted layer of agar medium has hardened, the plate is placed flat and another 10 ml. of medium added and allowed to harden.
The inoculum of resistant Staphylococci, as described, is prepared by diluting the water suspension 1/50 in 0.25 percent agar in sterile water or saline. For Gram negative organisms, an overnight broth culture is diluted 1/50 in the 0.25 percent agar-water. This dilution is thoroughly shaken to evenly suspend the bacteria. To streak the plate, we use a 1 ml. pipet containing an aliquot of the final […] agar dilution. After a little practice, a smooth even stroke of inoculum can be laid down very rapidly. The trick is in the smoothness of the streak--it must be accomplished uniformly and quickly.
After 24 hours incubation at 35°-37° C. the plates are read by simply measuring the length of bacterial growth as a percentage of the entire streak distance which is then converted to the percent of antibiotic concentration in the plate.
Average values of duplicate measurements are calculated and the M.I.C.'s reported are average of 2 streaks on the plate and from 2 to 3 duplicate plates. Eight streaks can be easily placed on each plate. If sharp end points are not obtained, the middle concentration between the beginning of inhibition of the streak to the end of growth is measured. The concentration of the antibiotic under examination is varied from plate to plate in a series as follows: […]
This method of screening penicillins and cephalosporins is quite satisfactory. Control plates containing penicillin and staphcillin or prostaphlin, or other control antibiotic, are used daily for the resistant staphylococcal activity screen. The gradient plate method has shown differences between antibiotics that were not apparent by any other methods of screening. […] We believe that the gradient plate screen is more sensitive to small differences between related antibiotics than other methods and pictures of the plates can provide a permanent record. The method also lends itself readily to modification of specific purposes--e.g., cross gradients.
The compounds listed below are examples of compounds useful in the method of this invention. After the compound name there is given in parentheses, where tested, the minimum inhibitory concentrations (MIC) in micrograms per milliliter (μg/ml) for the compound in the above described gradient plate procedure test against methicillin-resistant Staphylococcus aureus, (in the absence of blood serum/in the presence of 20 percent blood serum).
and pharmaceutically acceptable salts thereof. The abbreviation "s.z." means skip zones.

[2] = system: Streptococcus pyogenes C203; experiment: MIC in broth against Streptococcus pyogenes C203; type: cell-based
Experimental: The MIC for the compound of Example 13 against Streptococcus pyogenes C203 in broth was 0.008 μg/ml.

[3] = system: P. morganii, indole positive; experiment: In vitro MIC in agar, additional microorganisms; type: cell-based; details: Morganella morganii
Excerpt: (§1) The compound of Example 13 gave the following in vitro minimum inhibitory concentrations (MIC values), in microgram/milliliter of agar (μg/ml.) against the following additional microorganisms

E. aerogenes EB17 = experiment: In vitro MIC in agar, additional microorganisms; type: cell-based; details: Klebsiella aerogenes
Excerpt: as §1

S. facalis X66 = experiment: In vitro MIC in agar, additional microorganisms; type: cell-based
Excerpt: as §1

P. aeroginosa X239 = experiment: In vitro MIC in agar, additional microorganisms; type: cell-based
Excerpt: as §1

C. freundii CF17 = experiment: In vitro MIC in agar, additional microorganisms; type: cell-based; details: Citrobacter freundii
Excerpt: as §1

S. typhimurium = experiment: In vitro MIC in agar, additional microorganisms; type: cell-based; details: Salmonella enterica
Excerpt: as §1

H. pneumoniae KL14 = experiment: In vitro MIC in agar, additional microorganisms; type: cell-based; details: Klebsiella pneumoniae
Excerpt: as §1

B. bronchiseptica = experiment: In vitro MIC in agar, additional microorganisms; type: cell-based; details: Bordetella bronchiseptica
Excerpt: as §1

C. ulmi = experiment: In vitro MIC in agar, additional microorganisms; type: cell-based
Excerpt: as §1

P. solenaecarum X185 = experiment: In vitro MIC in agar, additional microorganisms; type: cell-based
Excerpt: as §1

A. flavus = experiment: In vitro MIC in agar, additional microorganisms; type: cell-based; details: Aspergillus flavus
Excerpt: as §1

E. coli EC14 = experiment: In vitro MIC in agar, additional microorganisms; type: cell-based; details: Escherichia coli
Excerpt: as §1

T. mentagrophytes 27 = experiment: In vitro MIC in agar, additional microorganisms; type: cell-based; details: Trichophyton mentagrophytes
Excerpt: as §1

S. marcescens SE3 = experiment: In vitro MIC in agar, additional microorganisms; type: cell-based; details: Serratia marcescens
Excerpt: as §1

C. tropicalis A17 = experiment: In vitro MIC in agar, additional microorganisms; type: cell-based; details: Candida tropicalis
Excerpt: as §1

S. aureus = experiment: In vitro MIC in agar, additional microorganisms; type: cell-based; details: Staphylococcus aureus
Excerpt: as §1

E. amylovora = experiment: In vitro MIC in agar, additional microorganisms; type: cell-based; details: Erwinia amylovora
Excerpt: as §1

S. typhosa SA12 = experiment: In vitro MIC in agar, additional microorganisms; type: cell-based
[4] = system: Staphylococcus aureus cultures; experiment: Agar dilution MIC, Example 13 compound vs methicillin resistant Staphylococcus aureus; type: cell-based
Excerpt: The table which follows gives the minimum inhibitory concentration (MIC) in micrograms of compound per milliliter of culture (μg/ml), in comparison with similar MIC values for the known antibiotics methicillin, cephalothin and cephaloridine against the same strains of bacteria.

[5] = water
physchem = details: water
[6] = in the presence of 20 percent blood serum

Cc1nnc(SCC2=C(C(=O)O)N3C(=O)C(NC(=O)CSc4ccc(Cl)c(Cl)c4)C3SC2)s1 (centres unmarked) [3-(5'-methyl-1',3',4'-thiadiazol-2'-ylthiomethyl)-7-[2'-(3",4"-dichlorophenylthio)acetamido]-3-cephem-4-carboxylic acid, dicyclohexylamine salt]
MIC ([1]; in the absence of blood serum): 1.2 µg/mL | MIC [1, 6]: > 20 µg/mL

Cc1nnc(SCC2=C(C(=O)O)N3C(=O)C(NC(=O)CSc4cc(Cl)cc(Cl)c4)C3SC2)s1 (centres unmarked) [3-(5'-methyl-1',3',4'-thiadiazol-2'-ylthiomethyl)-7-[2'-(3",5"-dichlorophenylthio)acetamido]-3-cephem-4-carboxylic acid, sodium salt]
MIC ([1]; in the absence of blood serum): 4.5 µg/mL | MIC [1, 6]: > 20 µg/mL

O=C(CSc1cc(Cl)ccc1Cl)NC1C(=O)N2C(C(=O)O)=C(CSc3nnc(-c4ccc([N+](=O)[O-])cc4)o3)CSC12 (centres unmarked) [3-[5'-(p-nitrophenyl)-1',3',4'-oxadiazol-2'-ylthiomethyl]-7-[2'-(2",5"-dichlorophenylthio)actamido]-3-cephem-4-carboxylic acid, sodium salt]
MIC ([1]; in the absence of blood serum): 3.9 µg/mL | MIC [1, 6]: > 20 µg/mL

Cn1nnnc1SCC1=C(C(=O)O)N2C(=O)C(NC(=O)CSc3ccc(Cl)c(Cl)c3)[C@H]2SC1 (some centres unmarked) [Example 5, 7-[2-(3,4-dichlorophenylthio)acetamido]-3-(1-methyltetrazol-5-yl-thiomethyl)-3-cephem-4-carboxylic acid]
MIC ([1]; in the absence of blood serum): 2.4 µg/mL (≈ 4.38 µM) | MIC [1, 6]: > 20 µg/mL

Cc1nnc(SCC2=C(C(=O)O)N3C(=O)C(NC(=O)CSc4cc(Cl)ccc4Cl)C3SC2)s1 (centres unmarked) [3-(5'-methyl-1',3',4'-thiadiazol-2'-ylthiomethyl)-7-[2'-(2",5"-dichlorophenylthio)acetamido]-3-cephem-4-carboxylic acid, sodium salt]
MIC ([1]; in the absence of blood serum): 1.8 µg/mL | MIC [1, 6]: > 1 µg/mL

Cc1nnc(SCC2=C(C(=O)[O-])N3C(=O)C(NC(=O)CSc4ccc(F)c(Cl)c4)[C@H]3SC2)s1.[Na+] (some centres unmarked)
MIC [2]: 0.008 µg/mL | MIC [3]: > 128 µg/mL | MIC (E. aerogenes EB17): 128 µg/mL | MIC (S. facalis X66): 400 µg/mL | MIC (P. aeroginosa X239): > 128 µg/mL | MIC (C. freundii CF17): > 128 µg/mL | MIC (S. typhimurium): 128 µg/mL | MIC (H. pneumoniae KL14): 64 µg/mL | MIC (B. bronchiseptica): > 128 µg/mL | MIC (C. ulmi): > 128 µg/mL | MIC (P. solenaecarum X185): > 128 µg/mL | MIC (A. flavus): > 128 µg/mL | MIC (E. coli EC14): 64 µg/mL | MIC (T. mentagrophytes 27): > 128 µg/mL | MIC (S. marcescens SE3): > 128 µg/mL | MIC (C. tropicalis A17): > 128 µg/mL | MIC (S. aureus; S. aureus 3055 (penicillin G susceptible)): 0.031 µg/mL | MIC (S. aureus; S. aureus 3074 (Pen G. resist.)): 0.062 µg/mL | MIC (E. amylovora): 64 µg/mL | MIC (S. typhosa SA12): 32 µg/mL | MIC ([4]; culture 3055 (control), Trypticase Soy Agar with 4.5% NaCl added (5% NaCl)): 0.03 µg/mL | MIC ([4]; culture 3055 (control), Trypticase Soy Agar, 0.5% NaCl): 0.03 µg/mL | MIC ([4]; culture 3130, Trypticase Soy Agar with 4.5% NaCl added (5% NaCl)): 0.25 µg/mL | MIC ([4]; culture 3130, Trypticase Soy Agar, 0.5% NaCl): 0.5 µg/mL | MIC ([4]; culture 3131, Trypticase Soy Agar with 4.5% NaCl added (5% NaCl)): 0.25 µg/mL | MIC ([4]; culture 3131, Trypticase Soy Agar, 0.5% NaCl): 0.25 µg/mL | MIC ([4]; culture 3132, Trypticase Soy Agar with 4.5% NaCl added (5% NaCl)): 0.13 µg/mL | MIC ([4]; culture 3132, Trypticase Soy Agar, 0.5% NaCl): 0.13 µg/mL | MIC ([4]; culture 3133, Trypticase Soy Agar with 4.5% NaCl added (5% NaCl)): 0.13 µg/mL | MIC ([4]; culture 3133, Trypticase Soy Agar, 0.5% NaCl): 0.13 µg/mL | MIC ([4]; culture 3134, Trypticase Soy Agar with 4.5% NaCl added (5% NaCl)): 0.25 µg/mL | MIC ([4]; culture 3134, Trypticase Soy Agar, 0.5% NaCl): 1 µg/mL | MIC ([4]; culture 3135, Trypticase Soy Agar with 4.5% NaCl added (5% NaCl)): 0.5 µg/mL | MIC ([4]; culture 3135, Trypticase Soy Agar, 0.5% NaCl): 0.5 µg/mL | MIC ([4]; culture 3136, Trypticase Soy Agar with 4.5% NaCl added (5% NaCl)): 0.5 µg/mL | MIC ([4]; culture 3136, Trypticase Soy Agar, 0.5% NaCl): 0.25 µg/mL | MIC ([4]; culture 3137, Trypticase Soy Agar with 4.5% NaCl added (5% NaCl)): 1 µg/mL | MIC ([4]; culture 3137, Trypticase Soy Agar, 0.5% NaCl): 1 µg/mL | MIC ([4]; culture 3138, Trypticase Soy Agar with 4.5% NaCl added (5% NaCl)): 0.5 µg/mL | MIC ([4]; culture 3138, Trypticase Soy Agar, 0.5% NaCl): 1 µg/mL | MIC ([4]; culture 3139, Trypticase Soy Agar with 4.5% NaCl added (5% NaCl)): 0.03 µg/mL | MIC ([4]; culture 3139, Trypticase Soy Agar, 0.5% NaCl): 0.25 µg/mL | MIC ([4]; culture H232 (control), Trypticase Soy Agar with 4.5% NaCl added (5% NaCl)): 0.06 µg/mL | MIC ([4]; culture H232 (control), Trypticase Soy Agar, 0.5% NaCl): 0.06 µg/mL | MIC ([4]; culture Havarmak 1136501, Trypticase Soy Agar with 4.5% NaCl added (5% NaCl)): 1 µg/mL | MIC ([4]; culture Havarmak 1136501, Trypticase Soy Agar, 0.5% NaCl): 0.5 µg/mL | MIC ([4]; culture S 61, Trypticase Soy Agar with 4.5% NaCl added (5% NaCl)): 0.5 µg/mL | MIC ([4]; culture S 61, Trypticase Soy Agar, 0.5% NaCl): 0.5 µg/mL | MIC ([4]; culture Seattle 966, Trypticase Soy Agar with 4.5% NaCl added (5% NaCl)): 0.06 µg/mL | MIC ([4]; culture Seattle 966, Trypticase Soy Agar, 0.5% NaCl): 0.25 µg/mL | solubility upon warming (in words) [5]: increases | solubility (physchem): > 100 mg/mL

CC(=O)OCC1=C(C(=O)O)N2C(=O)C(NC(=O)CSc3cccc(Cl)c3)C2SC1 (centres unmarked) [7-m-Chlorophenylthioacetamidocephalosporanic acid, potassium salt]
MIC ([1]; in the absence of blood serum): 2 µg/mL | MIC [1, 6]: 5.2 µg/mL

COc1ccc(-c2nnc(SCC3=C(C(=O)O)N4C(=O)C(NC(=O)CSc5cc(Cl)ccc5Cl)C4SC3)o2)cc1 (centres unmarked) [3-[5'-(p-methoxyphenyl)-1',3',4'-oxadiazol-5'-ylthiomethyl]-7-[2'-(2",5"-dichlorophenylthio)acetamido]-3-cephem-4-carboxylic acid, sodium salt]
MIC ([1]; in the absence of blood serum): 4.4 µg/mL
